The values below are quoted from earlier work in EP0266006A2, “Novel hypotensive diuretic peptides” (SHIONOGI SEIYAKU KABUSHIKI KAISHA trading under the name of …, priority 1986, dated 1988).

The conditions of this data set: said to be so, unlike α type or γ type.

Where no end group is shown, it is not given here.

For “β-hANP: antiparallel dimer of α-hANP (SLRRSSCFGGRMDRIGAQSGLGCNSFRY; ends and bridges not checked; also: antiparallel dimer of α-hANP; UniProt P01160 124-151, looked up)”, the “diuretic action (duration)” value is “persistent”.
